Reference: PubChem BioAssay AID2060898 (Molecular Pharmacology Branch, DTP, NCI, 2025)

System: 616215-338-R-J1-PDC complex spheroid viability
Assay: Anticancer human tumor 616215-338-R-J1-PDC patient-derived colon adenocarcinoma cell line growth inhibition [RAS]
Conditions: for IC50: curve of first compound; for viability, T/C: stronger effect = lower value
Method in brief: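 Multi-cell-type spheroids: tumor cells plus HUVEC endothelial cells and mesenchymal stem cells. RAS-pathway inhibitors were combined with targeted agents, each dosed in half-log steps down from clinical Cmax, or from 10 microM when Cmax was unknown.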

[1] = second compound 0.00316 µM, first compound 0.0316 µM
[2] = second compound 0.00316 µM, first compound 0.1 µM
[3] = second compound 0.00316 µM, first compound 0.316 µM
[4] = second compound 0.00316 µM, first compound 1 µM
[5] = second compound 0.01 µM, first compound 0.0316 µM
[6] = second compound 0.01 µM, first compound 0.1 µM
[7] = second compound 0.01 µM, first compound 0.316 µM
[8] = second compound 0.01 µM, first compound 1 µM
[9] = second compound 0.0316 µM, first compound 0.0316 µM
[10] = second compound 0.0316 µM, first compound 0.1 µM
[11] = second compound 0.0316 µM, first compound 0.316 µM
[12] = second compound 0.0316 µM, first compound 1 µM
[13] = second compound 0.1 µM, first compound 0.0316 µM
[14] = second compound 0.1 µM, first compound 0.1 µM
[15] = second compound 0.1 µM, first compound 0.316 µM
[16] = second compound 0.1 µM, first compound 1 µM
[17] = second compound 0.316 µM, first compound 0.0316 µM
[18] = second compound 0.316 µM, first compound 0.1 µM
[19] = second compound 0.316 µM, first compound 0.316 µM
[20] = second compound 0.316 µM, first compound 1 µM
[21] = second compound 1 µM, first compound 0.0316 µM
[22] = second compound 1 µM, first compound 0.1 µM
[23] = second compound 1 µM, first compound 0.316 µM
[24] = second compound 1 µM, first compound 1 µM
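Note: spheroids exposed to agents for seven days before viability readout.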
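Throughout, for viability, T/C: 100% = DMSO vehicle control viability.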

`CC(=O)OC12COC1CC(O)C1(C)C(=O)C(O)C3=C(C)C(OC(=O)C(O)C(NC(=O)OC(C)(C)C)c4ccccc4)CC(O)(C(OC(=O)c4ccccc4)C21)C3(C)C` (centres undefined) + C=CC(=O)N1CCN(c2nc(OCC3CCCN3C)nc3c(F)c(-c4nc(N)cc(C)c4C(F)(F)F)c(Cl)cc23)C(C)C1 was tested. Which IC50 (second compound 0.00316 µM) did it give?
Its IC50 is less than 31.6 nM.

What about the IC50 (second compound 0.01 µM) of the same compound?
The IC50 was less than 31.6 nM.

What about the IC50 (second compound 0.0316 µM) of the same compound?
The IC50 was less than 31.6 nM.

And the IC50 (second compound 0.1 µM)?
The IC50 was less than 31.6 nM.

What about the IC50 (second compound 0.316 µM) of the same compound?
The IC50 was less than 31.6 nM.

What about the IC50 (second compound 1 µM) of the same compound?
The IC50 was less than 31.6 nM.

And the viability, T/C [1]?
Its viability, T/C is 28%.

And the viability, T/C [2]?
The viability, T/C was 22.4%.

And the viability, T/C [3]?
The viability, T/C was 18.4%.

And the viability, T/C [4]?
The viability, T/C was 18.6%.

And the viability, T/C (second compound 0.00316 µM, first compound 3.16 µM)?
Its viability, T/C is 18.3%.

What about the viability, T/C (second compound 0.00316 µM, first compound 10 µM) of the same compound?
The viability, T/C was 24.5%.

And the viability, T/C [5]?
Its viability, T/C is 25.3%.

What about the viability, T/C [6] of the same compound?
The viability, T/C was 21.4%.

And the viability, T/C [7]?
Its viability, T/C is 17.5%.

What about the viability, T/C [8] of the same compound?
The viability, T/C was 20.5%.

And the viability, T/C (second compound 0.01 µM, first compound 3.16 µM)?
The viability, T/C was 18.7%.

And the viability, T/C (second compound 0.01 µM, first compound 10 µM)?
The viability, T/C was 21.2%.

And the viability, T/C [9]?
The viability, T/C was 21.3%.

And the viability, T/C [10]?
The viability, T/C was 23.9%.

What about the viability, T/C [11] of the same compound?
The viability, T/C was 16.5%.

What about the viability, T/C [12] of the same compound?
Its viability, T/C is 18.5%.

And the viability, T/C (second compound 0.0316 µM, first compound 3.16 µM)?
Its viability, T/C is 20%.

And the viability, T/C (second compound 0.0316 µM, first compound 10 µM)?
The viability, T/C was 21.9%.

What about the viability, T/C [13] of the same compound?
Its viability, T/C is 24.3%.

What about the viability, T/C [14] of the same compound?
Its viability, T/C is 20.6%.

And the viability, T/C [15]?
Its viability, T/C is 20.6%.

And the viability, T/C [16]?
The viability, T/C was 16.4%.

What about the viability, T/C (second compound 0.1 µM, first compound 3.16 µM) of the same compound?
The viability, T/C was 21.1%.

And the viability, T/C (second compound 0.1 µM, first compound 10 µM)?
Its viability, T/C is 21%.

And the viability, T/C [17]?
The viability, T/C was 22.3%.

What about the viability, T/C [18] of the same compound?
The viability, T/C was 22.3%.

What about the viability, T/C [19] of the same compound?
Its viability, T/C is 17.2%.

What about the viability, T/C [20] of the same compound?
Its viability, T/C is 18.5%.

And the viability, T/C (second compound 0.316 µM, first compound 3.16 µM)?
The viability, T/C was 20.8%.

And the viability, T/C (second compound 0.316 µM, first compound 10 µM)?
The viability, T/C was 23.9%.

What about the viability, T/C [21] of the same compound?
Its viability, T/C is 22.4%.

What about the viability, T/C [22] of the same compound?
The viability, T/C was 20.4%.

And the viability, T/C [23]?
Its viability, T/C is 18.7%.

And the viability, T/C [24]?
The viability, T/C was 17.3%.

And the viability, T/C (second compound 1 µM, first compound 3.16 µM)?
The viability, T/C was 23%.

What about the viability, T/C (second compound 1 µM, first compound 10 µM) of the same compound?
Its viability, T/C is 24.8%.

Which IC50 (second compound 0.00316 µM) does the source give for `Nc1ccn(C2OC(CO)C(O)C2(F)F)c(=O)n1` (centres undefined) + C=CC(=O)N1CCN(c2nc(OCC3CCCN3C)nc3c(F)c(-c4nc(N)cc(C)c4C(F)(F)F)c(Cl)cc23)C(C)C1 here?
Its IC50 is 11.8 nM.

What about the IC50 (second compound 0.01 µM) of the same compound?
The IC50 was 11.7 nM.

And the IC50 (second compound 0.0316 µM)?
The IC50 was 14.7 nM.

What about the IC50 (second compound 0.1 µM) of the same compound?
Its IC50 is 15.4 nM.

What about the IC50 (second compound 0.316 µM) of the same compound?
The IC50 was 8.51 nM.

What about the IC50 (second compound 1 µM) of the same compound?
The IC50 was 9.78 nM.

What about the viability, T/C (second compound 0.00316 µM, first compound 0.00316 µM) of the same compound?
The viability, T/C was 96.1%.

What about the viability, T/C (second compound 0.00316 µM, first compound 0.01 µM) of the same compound?
The viability, T/C was 53.2%.

And the viability, T/C [1]?
The viability, T/C was 29.3%.

What about the viability, T/C [2] of the same compound?
The viability, T/C was 14.4%.

And the viability, T/C [3]?
Its viability, T/C is 14.2%.

What about the viability, T/C [4] of the same compound?
The viability, T/C was 17.6%.

What about the viability, T/C (second compound 0.01 µM, first compound 0.00316 µM) of the same compound?
Its viability, T/C is 109%.

And the viability, T/C (second compound 0.01 µM, first compound 0.01 µM)?
The viability, T/C was 54.9%.

And the viability, T/C [5]?
Its viability, T/C is 18.7%.

And the viability, T/C [6]?
Its viability, T/C is 15.8%.

And the viability, T/C [7]?
Its viability, T/C is 12.9%.

What about the viability, T/C [8] of the same compound?
Its viability, T/C is 16.3%.

What about the viability, T/C (second compound 0.0316 µM, first compound 0.00316 µM) of the same compound?
Its viability, T/C is 108%.

What about the viability, T/C (second compound 0.0316 µM, first compound 0.01 µM) of the same compound?
Its viability, T/C is 65.1%.

And the viability, T/C [9]?
The viability, T/C was 20.1%.

What about the viability, T/C [10] of the same compound?
Its viability, T/C is 13%.

What about the viability, T/C [11] of the same compound?
The viability, T/C was 9.07%.

What about the viability, T/C [12] of the same compound?
Its viability, T/C is 16.4%.

What about the viability, T/C (second compound 0.1 µM, first compound 0.00316 µM) of the same compound?
The viability, T/C was 88.9%.

And the viability, T/C (second compound 0.1 µM, first compound 0.01 µM)?
The viability, T/C was 64%.

What about the viability, T/C [13] of the same compound?
Its viability, T/C is 27%.

What about the viability, T/C [14] of the same compound?
The viability, T/C was 14%.

And the viability, T/C [15]?
Its viability, T/C is 13.4%.

And the viability, T/C [16]?
The viability, T/C was 14.6%.

What about the viability, T/C (second compound 0.316 µM, first compound 0.00316 µM) of the same compound?
The viability, T/C was 111%.

What about the viability, T/C (second compound 0.316 µM, first compound 0.01 µM) of the same compound?
The viability, T/C was 39.9%.

And the viability, T/C [17]?
The viability, T/C was 21%.

And the viability, T/C [18]?
Its viability, T/C is 11.6%.

What about the viability, T/C [19] of the same compound?
The viability, T/C was 14.9%.

And the viability, T/C [20]?
Its viability, T/C is 20.7%.

And the viability, T/C (second compound 1 µM, first compound 0.00316 µM)?
The viability, T/C was 90.7%.

What about the viability, T/C (second compound 1 µM, first compound 0.01 µM) of the same compound?
The viability, T/C was 49%.

What about the viability, T/C [21] of the same compound?
The viability, T/C was 25.6%.

What about the viability, T/C [22] of the same compound?
Its viability, T/C is 16.8%.

What about the viability, T/C [23] of the same compound?
Its viability, T/C is 12.6%.

What about the viability, T/C [24] of the same compound?
The viability, T/C was 17.6%.
